Measurements published in the NIST ThermoML archive (doi:10.1016/j.jct.2015.03.011).
Where “and” joins values, the source holds several entries; their conditions need not be identical. Equal values may be shown once.

Details: Liquid, Transpiration method

CC(N)CN (stereo unspecified) [1,2-propanediamine]
Details | vapor or sublimation pressure [kPa]
273.8 K | 0.2726
274.9 K | 0.2967
276.6 K | 0.3411
277 K | 0.3482
279.1 K | 0.4011
279.7 K | 0.4205
281.3 K | 0.4594
282.7 K | 0.5281
283.2 K | 0.5245
285.3 K | 0.6214
285.7 K | 0.6306
287.3 K | 0.72
288.7 K | 0.7897
289.2 K | 0.8316
291.2 K | 0.9464
291.7 K | 0.9537
293.1 K | 1.069
294.7 K | 1.187
295.2 K | 1.234
297.1 K | 1.357
297.6 K | 1.422
299.1 K | 1.559
299.6 K | 1.629
301.2 K | 1.82
301.7 K | 1.84
303.2 K | 2.075
303.7 K | 2.099
305.7 K | 2.354

CC(C)(N)CN [2-methyl-1,2-propanediamine]
Details | vapor or sublimation pressure
276 K | 0.2878 kPa
276.6 K | 0.3031 kPa
277.6 K | 0.3267 kPa
278.1 K | 0.3442 kPa
279.3 K | 0.3687 kPa
280.6 K | 0.405 kPa
282.4 K | 0.4569 kPa and 0.4785 kPa
283.2 K | 0.492 kPa
284.5 K | 0.548 kPa and 0.5301 kPa
286 K | 0.5853 kPa
288.4 K | 0.7053 kPa
290.4 K | 0.7971 kPa
292.5 K | 0.9233 kPa
294.3 K | 1.052 kPa
295.9 K | 1.144 kPa
297.2 K | 1.299 kPa
299 K | 1.422 kPa
300.3 K | 1.575 kPa
302 K | 1.752 kPa
304.6 K | 2.037 kPa
306.1 K | 2.247 kPa
307.6 K | 2.451 kPa
308.7 K | 2.62 kPa
